The supplement of paper PMC10307832

Legend:
Assay in all cases: relative viability (nuclei count vs DMSO), 5 days (fraction); higher = more cells survive
[1] = compound: CC1=C(C(=NN1)C)CC2=C(C3=C(S2)N(C(=O)N(C3=O)C)CC(C)C)C(=O)N4C[C@@H](CO4)O + C[C@]1(O)C[C@@H](c2nc(-c3ccc4ccc(-c5ccccc5)nc4c3)c3c(N)nccn32)C1 [Linsitinib] (partner 1 µM)
In short: (§1)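 Medians of duplicate plates are given as relative viability. That measure is the nuclei count in treated wells divided by the count in vehicle wells. Counts were taken on 4× images of lung cancer cell lines in 1536-well plates, 5 days after pin-tool dosing the day after seeding with one drug alone or a fixed anchor-drug dose plus five library-drug doses (not always all listed) in √10 steps.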

[2] = compound: CC1=C(C(=NN1)C)CC2=C(C3=C(S2)N(C(=O)N(C3=O)C)CC(C)C)C(=O)N4C[C@@H](CO4)O + Cc1nc(Nc2ncc(C(=O)Nc3c(C)cccc3Cl)s2)cc(N2CCN(CCO)CC2)n1 [Dasatinib] (partner 0.075 µM)
In short: as §1

[3] = compound: CC1=C(C(=NN1)C)CC2=C(C3=C(S2)N(C(=O)N(C3=O)C)CC(C)C)C(=O)N4C[C@@H](CO4)O + Nc1nc2[nH]cc(CCc3ccc(C(=O)N[C@@H](CCC(=O)O)C(=O)O)cc3)c2c(=O)[nH]1 [Pemetrexed] (partner 0.2 µM)
In short: as §1

IDH-C35 + Lapatinib = compound: Cc1ccccc1C(C(=O)NC1CCCCC1)N(C(=O)Cn1ccnc1C)c1cccc(F)c1 [IDH-C35] + CS(=O)(=O)CCNCc1ccc(-c2ccc3ncnc(Nc4ccc(OCc5cccc(F)c5)c(Cl)c4)c3c2)o1 [Lapatinib] (partner 2 µM)
In short: as §1

Cell Line | relative viability ([1]; first compound 0.0025 µM) | relative viability ([1]; first compound 0.007906 µM) | relative viability ([1]; first compound 0.025 µM) | relative viability ([1]; first compound 0.07906 µM) | relative viability ([1]; first compound 0.25 µM) | relative viability ([2]; first compound 0.0025 µM) | relative viability ([2]; first compound 0.007906 µM) | relative viability ([2]; first compound 0.025 µM) | relative viability ([2]; first compound 0.07906 µM) | relative viability ([2]; first compound 0.25 µM) | relative viability ([3]; first compound 0.0025 µM) | relative viability ([3]; first compound 0.007906 µM) | relative viability ([3]; first compound 0.025 µM) | relative viability ([3]; first compound 0.07906 µM) | relative viability ([3]; first compound 0.25 µM) | relative viability (IDH-C35 + Lapatinib; first compound 0.08 µM) | relative viability (IDH-C35 + Lapatinib; first compound 0.253 µM) | relative viability (IDH-C35 + Lapatinib; first compound 0.8 µM) | relative viability (IDH-C35 + Lapatinib; first compound 8 µM) | relative viability (IDH-C35 + Lapatinib; first compound 2.53 µM)
LCLC-97TM1 | 0.183 | 0.206 | 0.205 | 0.163 | 0.159 | 0.898 | 0.897 | 0.735 | 0.852 | 0.878 | 0.179 | 0.19 | 0.173 | 0.152 | 0.202 | 0.672 | 0.825 | 1.1 | 0.869 | 
EPLC-272H | 1.24 | 1.13 | 1.32 | 0.986 | 1.27 | 0.527 | 0.376 | 0.418 | 0.24 | 0.305 | 0.356 | 0.333 | 0.41 | 0.301 | 0.348 | 1.21 | 1.04 | 0.912 | 0.802 | 
NCI-H1915 | 1.12 | 1.13 | 1.08 | 1.05 | 1.17 | 0.284 | 0.374 | 0.338 | 0.3 | 0.291 | 0.497 | 0.465 | 0.466 | 0.497 | 0.53 | 0.962 | 0.996 | 0.974 | 0.976 | 0.934
NCI-H2405 | 0.972 | 0.902 |  | 0.881 | 0.73 | 0.216 | 0.223 |  | 0.238 | 0.224 | 1.15 | 1.22 | 1.03 | 1 | 0.795 | 1.1 | 1.2 | 1.09 | 0.957 | 
NCI-H322M | 0.92 | 0.975 | 0.942 | 0.899 | 0.722 | 0.257 | 0.254 | 0.271 | 0.201 | 0.245 | 0.526 | 0.61 | 0.645 | 0.629 | 0.578 | 0.541 | 0.59 | 0.625 | 0.608 | 0.529
NCI-H1395 | 0.965 | 0.902 | 0.917 | 0.988 | 0.89 | 0.412 | 0.412 | 0.352 | 0.32 | 0.335 | 0.925 | 0.791 | 0.827 | 0.796 | 0.718 | 1 | 0.928 | 1.08 | 0.891 | 1.09
NCI-H358 | 0.707 | 0.794 | 0.801 | 0.892 | 0.998 | 0.18 | 0.198 | 0.166 | 0.162 | 0.15 | 0.172 | 0.185 | 0.159 | 0.157 | 0.181 | 0.502 | 0.503 | 0.445 | 0.508 | 0.534
NCI-H838 | 1.02 | 1.08 | 0.987 | 1.02 | 1.04 | 0.347 | 0.322 | 0.276 | 0.197 | 0.304 | 0.261 | 0.229 | 0.236 | 0.243 | 0.224 | 1.21 | 1.07 | 0.882 | 1.02 | 1.02
CAL-12T | 0.899 | 0.853 | 0.845 | 0.807 | 1.11 | 0.49 | 0.475 | 0.465 | 0.317 | 0.343 | 1.28 | 1.36 | 0.956 | 1.08 | 1.38 | 0.655 | 0.578 | 0.728 | 0.7 | 0.749
